In patent US7842685B2, “S1P1 receptor agonists and use thereof” (Amgen Inc., priority 2008, dated 2010):
Counter-ions that a name gives are not always drawn.

Target: T1, hS1P1 receptor (Homo sapiens, UniProt P21453)
T1 construct: host or cells: U2OS
Assay: hS1P1 receptor internalization assay (cell imaging-based, hS1P1-eGFP U2OS cells)
Conditions: U2OS cell line expressing hS1P1-eGFP, compounds incubated at 37° C. for one hour; for Emax: 1 h, efficacy (Max), read-out: hS1P1 Receptor Internalization (biolimaging) Max (%); for EC50: GFP-containing endosomes per cell (ArrayScan), read-out: hS1P1 Receptor Internalization (bioimaging) EC50 IP
Procedure: The activity of compounds of the invention was determined by a cell imaging-based assay measuring the degree of hS1P1 receptor internalization and a Ca^2+ mobilization assay measuring the level of S1P receptor activation. The receptor internalization assay was employed to determine the potency and efficacy of compounds on hS1P1 receptor, while Ca^2+ mobilization assay was used to determine selectivity among different S1P receptors and activity on S1P receptors from species such as rat, dog, and cyno. The hS1P1 receptor internalization assay was performed using a U2OS cell line expressing hS1P1-eGFP chimeric protein (Thermo Scientific, Soeborg, Denmark). Upon compound treatment, the hS1P1 receptor was internalized in cytoplasma and formed GFP-containing-endosomes. This event was detected by an automated microscope, ArrayScan (Thermo Scientific Cellomics, Pittsburg), and the degree of receptor internalization is quantitated by counting green fluorescent GFP-containing endosomes per cell. In this assay, hS1P1-eGFP expressing U2OS cells were starved in serum free media for two hours prior to compound treatment. Then compounds were incubated with the starved cells at 37° C. for one hour. Subsequently, compound-treated cells were fixed using 4% formaldehyde, and the nuclei were stained using Hoechst. Then the cells were imaged in ArrayScan. The potency and efficacy of the compounds were determined by plotting the number of green fluorescent GFP-containing endosomes per cell against corresponding compound concentration.

T1 sequence (P21453 whole entry): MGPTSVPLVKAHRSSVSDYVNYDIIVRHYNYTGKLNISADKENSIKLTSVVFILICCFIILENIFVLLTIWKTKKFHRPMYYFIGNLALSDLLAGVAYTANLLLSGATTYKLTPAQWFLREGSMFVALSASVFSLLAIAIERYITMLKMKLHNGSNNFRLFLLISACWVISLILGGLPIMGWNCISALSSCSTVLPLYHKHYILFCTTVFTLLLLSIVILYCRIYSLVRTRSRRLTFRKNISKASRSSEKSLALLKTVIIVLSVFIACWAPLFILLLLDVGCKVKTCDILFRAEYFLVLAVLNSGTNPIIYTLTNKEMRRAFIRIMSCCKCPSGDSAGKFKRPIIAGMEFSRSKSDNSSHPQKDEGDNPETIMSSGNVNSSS

Emax | EC50 | SMILES
122% | 0.3 nM | NC(CO)(CCc1ccc(-c2nc3ccc(C4(c5ccccc5)CC4)nc3s2)c(F)c1)COP(=O)(O)O (racemic) [Example 43, (rac)-2-amino-4-(3-fluoro-4-(5-(1-phenylcyclopropyl)thiazolo[5,4-b]pyridine-2-yl)phenyl)-2-(hydroxymethyl)butyl dihydrogen phosphate]
98% | 2.5 nM | O=C(O)C1CN(Cc2ccc(-c3nc4ccc(C5(c6ccccc6)CC5)nc4s3)c(F)c2)C1 [Example 1, 1-((3-fluoro-4-(5-(1-phenylcyclopropyl)thiazolo[5,4-b]pyridin-2-yl)-phenyl)methyl)azetidine-3-carboxylic acid]
121% | 1.2 nM | O=C(O)C1(F)CN(Cc2ccc(-c3nc4ccc(C5(c6ccccc6)CC5)nc4s3)c(F)c2)C1 [Example 4, 3-fluoro-1-((3-fluoro-4-(5-(1-phenylcyclopropyl)thiazolo[5,4-b]pyridine-2-yl)phenyl)methyl)azetidine-3-carboxylic acid hydrochloride]
101% | 2 nM | O=C(O)CCNCc1ccc(-c2nc3ccc(C4(c5ccccc5)CC4)nc3s2)c(F)c1 [Example 12, 3-((3-fluoro-4-(5-(1-phenylcyclopropyl)thiazolo[5,4-b]pyridine-2-yl)-phenyl)methylamino)propanoic acid hydrochloride]
66% | 20.6 nM | O=C(O)CCNC(=O)c1ccc(-c2nc3ccc(C4(c5ccccc5)CC4)nc3s2)c(F)c1 [Example 14, 3-(3-fluoro-4-(5-(1-phenylcyclopropyl)thiazolo[5,4-b]pyridine-2-yl)-benzamido)propanoic acid]
160% | 31.2 nM | NC1(c2ccc(-c3nc4ccc(C5(c6ccccc6)CC5)nc4s3)c(F)c2)CC1 [Example 20, 1-(3-fluoro-4-(5-(1-phenylcyclopropyl)thiazolo[5,4-b]pyridine-2-yl)phenyl)cyclopropanamine]
157% | 192 nM | CC(C)(N)c1ccc(-c2nc3ccc(C4(c5ccccc5)CC4)nc3s2)c(F)c1 [Example 22, 2-(3-fluoro-4-(5-(1-phenylcyclopropyl)thiazolo[5,4-b]pyridine-2-yl)phenyl)-propan-2-amine]
81% | 5880 nM | O=C(O)CCc1ccc(-c2nc3ccc(C4(c5ccccc5)CC4)nc3s2)c(F)c1 [Example 27, 3-(3-fluoro-4-(5-(1-phenylcyclopropyl)thiazolo[5,4-b]pyridine-2-yl)-phenyl)propanoic acid]
91% | 334 nM | OCC(CO)Cc1ccc(-c2nc3ccc(C4(c5ccccc5)CC4)nc3s2)c(F)c1 [Example 29, 2-(3-fluoro-4-(5-(1-phenylcyclopropyl)thiazolo[5,4-b]pyridine-2-yl)benzyl)propane-1,3-diol]
90% | 18.7 nM | OC1CN(Cc2ccc(-c3nc4ccc(C5(c6ccccc6)CC5)nc4s3)c(F)c2)C1 [Example 35, 1-(3-fluoro-4-(5-(1-phenylcyclopropyl)thiazolo[5,4-b]pyridin-2-yl)benzyl)-azetidin-3-ol]
119% | 10.2 nM | NC(CO)(CO)CCc1ccc(-c2nc3ccc(C4(c5ccccc5)CC4)nc3s2)c(F)c1 [Example 42, 2-amino-2-(3-fluoro-4-(5-(1-phenylcyclopropyl)thiazolo[5,4-b]pyridin-2-yl)phenethyl)propane-1,3-diol hydrochloride]
107% | 35.5 nM | O=C(O)C(=O)NCCc1ccc(-c2nc3ccc(C4(c5ccccc5)CC4)nc3s2)c(F)c1 [Example 57, ((2-(3-fluoro-4-(5-(1-phenylcyclopropyl)[1,3]thiazolo[5,4-b]pyridin-2-yl)phenyl)ethyl)amino)(oxo)acetic acid]
162% | 721 nM | Fc1cc(CCNCc2ccccc2)ccc1-c1nc2ccc(C3(c4ccccc4)CC3)nc2s1 [Example 60, N-benzyl-2-(3-fluoro-4-(5-(1-phenylcyclopropyl)[1,3]thiazolo[5,4-b]pyridin-2-yl)phenyl)ethanamine]

The next lines start with the compound.

SMILES | Emax | EC50
O=C(O)C1CN(Cc2ccc(-c3nc4ccc(C5(c6ccccc6)CC=CC5)nc4s3)c(F)c2)C1 [Example 5, 1-((3-fluoro-4-(5-(1-phenylcyclopent-3-enyl)thiazolo[5,4-b]pyridine-2-yl)phenyl)methyl)azetidine-3-carboxylic acid] | 90% | 130 nM
O=C(O)C1CN(Cc2ccc(-c3nc4ccc(C5(c6ccccc6)CCCCC5)nc4s3)c(F)c2)C1 [Example 7, 1-((3-fluoro-4-(5-(1-phenylcyclohexyl)thiazolo[5,4-b]pyridine-2-yl)-phenyl)methyl)azetidine-3-carboxylic acid] | 108% | 32.6 nM
O=C(O)C1CN(Cc2ccc(-c3nc4ccc(C5(c6ccccc6)CCO5)nc4s3)c(F)c2)C1 (centres unmarked) [Example 9, 1-((3-fluoro-4-(5-(2-phenyloxetan-2-yl)thiazolo[5,4-b]pyridine-2-yl)-phenyl)methyl)azetidine-3-carboxylic acid] | 144% | 28.6 nM
O=C(O)C1CN(Cc2ccc(-c3nc4ccc(C5(c6ccccc6)CC5)cc4s3)c(F)c2)C1 [Example 10, 1-((3-fluoro-4-(6-(1-phenylcyclopropyl)benzo[d]thiazol-2-yl)phenyl)-methyl)azetidine-3-carboxylic acid hydrochloride] | 97% | 42 nM
Cc1cc(-c2nc3ccc(C4(c5ccccc5)CC4)nc3s2)cc(C)c1CN1CC(C(=O)O)C1 [Example 17, 1-((2,6-dimethyl-4-(5-(1-phenylcyclopropyl)thiazolo[5,4-b]-pyridin-2-yl)phenyl)methyl)azetidine-3-carboxylic acid] | 148% | 21 nM
Cc1cc(CN2CC(C(=O)O)C2)ccc1-c1nc2ccc(C3(c4ccccc4)CC3)nc2s1 [Example 19, 1-((3-methyl-4-(5-(1-phenylcyclopropyl)thiazolo[5,4-b]pyridine-2-yl)phenyl)methyl)azetidine-3-carboxylic acid] | 121% | 1.4 nM
O=C(O)C1(C(=O)O)CC(Cc2ccc(-c3nc4ccc(C5(c6ccccc6)CC5)nc4s3)c(F)c2)C1 [Example 30, 3-(3-fluoro-4-(5-(1-phenylcyclopropyl)thiazolo[5,4-b]pyridine-2-yl)benzyl)cyclobutane-1,1-dicarboxylic acid] | 79% | 2910 nM
O=C(O)C1CN(Cc2ccc(-c3nc4ccc(C5(c6ccccc6F)CC5)nc4s3)c(F)c2)C1 [Example 38, 1-(3-fluoro-4-(5-(1-(2-fluorophenyl)cyclopropyl)thiazolo[5,4-b]pyridine-2-yl)-benzyl)azetidine-3-carboxylic acid] | 111% | 3.7 nM
O=C(O)C1CN(Cc2ccc(-c3nc4ccc(C5(c6ccc(O)cc6)CC5)nc4s3)c(F)c2)C1 [Example 39, 1-(3-fluoro-4-(5-(1-(4-hydroxyphenyl)cyclopropyl)thiazolo[5,4-b]pyridine-2-yl)benzyl)azetidine-3-carboxylic acid] | 83% | 21.2 nM
O=C(O)C1CN(Cc2ccc(-c3nc4nc(C5(c6ccccc6)CC5)ccc4s3)c(F)c2)C1 [Example 44, 1-(3-fluoro-4-(5-(1-phenylcyclopropyl)thiazolo[4,5-b]pyridin-2-yl)-benzyl)azetidine-3-carboxylic acid trifluoroacetic acid salt] | 113% | 59.7 nM
O=C(O)C1CN(Cc2ccc(-c3nc4cnc(C5(c6ccccc6)CC5)cc4s3)c(F)c2)C1 [Example 45, 1-(3-fluoro-4-(6-(1-phenylcyclopropyl)thiazolo[4,5-c]pyridine-2-yl)benzyl)azetidine-3-carboxylic acid trifluoroacetic acid salt] | 103% | 99.7 nM
Nc1cc(CN2CC(C(=O)O)C2)ccc1-c1nc2ccc(C3(c4ccccc4)CC3)nc2s1 [Example 46, 1-(3-amino-4-(5-(1-phenylcyclopropyl)thiazolo[5,4-b]pyridin-2-yl)benzyl)azetidine-3-carboxylic acid] | 99% | 4.8 nM
O=C(O)C1CN(Cc2ccc(-c3nc4ccc(C5(C6CCCCC6)CC5)nc4s3)c(F)c2)C1 [Example 47, 1-(4-(5-(1-cyclohexylcyclopropyl)thiazolo[5,4-b]pyridine-2-yl)-3-fluorobenzyl)azetidine-3-carboxylic acid trifluoroacetic acid salt] | 117% | 5.9 nM
O=C(O)C1CN(Cc2ccc(-c3nc4ccc(C5(C6CCOCC6)CC5)nc4s3)c(F)c2)C1 [Example 52, 1-(3-fluoro-4-(5-(1-(tetrahydro-2H-pyran-4-yl)cyclopropyl)thiazolo[5,4-b]pyridine-2-yl)benzyl)azetidine-3-carboxylic acid trifluoroacetic acid salt] | 109% | 1190 nM
O=C(O)[C@@H]1C[C@H](c2ccc(-c3nc4ccc(C5(c6ccccc6)CC5)nc4s3)c(F)c2)CN1 [Example 54, (2S,4R)-4-(3-fluoro-4-(5-(1-phenylcyclopropyl)thiazolo[5,4-b]pyridine-2-yl)phenyl)pyrrolidine-2-carboxylic acid trifluoroacetic acid salt] | 126% | 4.5 nM
